# Data as given in PMC7156458, “Synthetic biology based construction of biological activity-related library of fungal decalin-containing diterpenoid pyrones” (Nature Communications, 2020).
# Biological target: Aβ42 (Homo sapiens, UniProt P05067)
# Assay: Th-T (thioflavin-T) assay of Aβ42 aggregation
# Type: biochemical
# Settings: for Th-T assay plate reading, mean of three wells (Supplementary Fig. 47): source data, Ab alone and No Ab as controls
# Chain of Aβ42 (P05067 672-713): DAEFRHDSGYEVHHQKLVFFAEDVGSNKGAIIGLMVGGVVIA
smiles,measurement,setting,value
CC(C)=CCC/C(C)=C/CC/C(C)=C/CC/C(C)=C/Cc1c(O)c(C)c(C)oc1=O [Compound 2],"Th-T fluorescence, mean of three wells","Aβ42 aggregation time course, reading M117",2.942
same,"Th-T fluorescence, mean of three wells","Aβ42 aggregation time course, reading M118",2.9616
same,"Th-T fluorescence, mean of three wells","Aβ42 aggregation time course, reading M119",2.929
same,"Th-T fluorescence, mean of three wells","Aβ42 aggregation time course, reading M120",2.963
same,"Th-T fluorescence, mean of three wells","Aβ42 aggregation time course, reading M121",2.95
same,"Th-T fluorescence, mean of three wells","Aβ42 aggregation time course, reading M122",2.943
same,"Th-T fluorescence, mean of three wells","Aβ42 aggregation time course, reading M123",2.95
same,"Th-T fluorescence, mean of three wells","Aβ42 aggregation time course, reading M124",2.945
same,"Th-T fluorescence, mean of three wells","Aβ42 aggregation time course, reading M125",2.938
same,"Th-T fluorescence, mean of three wells","Aβ42 aggregation time course, reading M126",2.934
same,"Th-T fluorescence, mean of three wells","Aβ42 aggregation time course, reading M127",2.935
same,"Th-T fluorescence, mean of three wells","Aβ42 aggregation time course, reading M128",2.947
same,"Th-T fluorescence, mean of three wells","Aβ42 aggregation time course, reading M129",2.9294
same,"Th-T fluorescence, mean of three wells","Aβ42 aggregation time course, reading M130",2.914
same,"Th-T fluorescence, mean of three wells","Aβ42 aggregation time course, reading M131",2.934
same,"Th-T fluorescence, mean of three wells","Aβ42 aggregation time course, reading M132",2.934
same,"Th-T fluorescence, mean of three wells","Aβ42 aggregation time course, reading M133",2.945
same,"Th-T fluorescence, mean of three wells","Aβ42 aggregation time course, reading M134",2.942
same,"Th-T fluorescence, mean of three wells","Aβ42 aggregation time course, reading M135",2.931
same,"Th-T fluorescence, mean of three wells","Aβ42 aggregation time course, reading M136",2.912
same,"Th-T fluorescence, mean of three wells","Supplementary Fig. 47, reading M137",2.914
same,"Th-T fluorescence, mean of three wells","Supplementary Fig. 47, reading M138",2.931
same,"Th-T fluorescence, mean of three wells","Supplementary Fig. 47, reading M139",2.919
same,"Th-T fluorescence, mean of three wells","Supplementary Fig. 47, reading M140",2.936
same,"Th-T fluorescence, mean of three wells","Supplementary Fig. 47, reading M141",2.944
same,"Th-T fluorescence, mean of three wells","Supplementary Fig. 47, reading M142",2.9414
same,"Th-T fluorescence, mean of three wells","Supplementary Fig. 47, reading M143",2.941
same,"Th-T fluorescence, mean of three wells","Supplementary Fig. 47, reading M144",2.932
same,"Th-T fluorescence, mean of three wells","Supplementary Fig. 47, reading M145",2.925
same,"Th-T fluorescence, mean of three wells","Supplementary Fig. 47 source data, measurement M37 of time course",2.747
same,"Th-T fluorescence, mean of three wells","Supplementary Fig. 47 source data, measurement M38 of time course",2.734
same,"Th-T fluorescence, mean of three wells","Supplementary Fig. 47 source data, measurement M39 of time course",2.741
same,"Th-T fluorescence, mean of three wells","Supplementary Fig. 47 source data, measurement M40 of time course",2.757
same,"Th-T fluorescence, mean of three wells","Supplementary Fig. 47 source data, measurement M41 of time course",2.789
same,"Th-T fluorescence, mean of three wells","Supplementary Fig. 47 source data, measurement M42 of time course",2.791
same,"Th-T fluorescence, mean of three wells","Supplementary Fig. 47 source data, measurement M43 of time course",2.8204
same,"Th-T fluorescence, mean of three wells","Supplementary Fig. 47 source data, measurement M44 of time course",2.818
same,"Th-T fluorescence, mean of three wells","Supplementary Fig. 47 source data, measurement M45 of time course",2.833
same,"Th-T fluorescence, mean of three wells","Supplementary Fig. 47 source data, measurement M46 of time course",2.86
same,"Th-T fluorescence, mean of three wells","Supplementary Fig. 47 source data, measurement M47 of time course",2.867
same,"Th-T fluorescence, mean of three wells","Supplementary Fig. 47 source data, measurement M48 of time course",2.874
same,"Th-T fluorescence, mean of three wells","Supplementary Fig. 47 source data, measurement M49 of time course",2.883
same,"Th-T fluorescence, mean of three wells","Supplementary Fig. 47 source data, measurement M50 of time course",2.863
same,"Th-T fluorescence, mean of three wells","Supplementary Fig. 47 source data, measurement M51 of time course",2.8662
same,"Th-T fluorescence, mean of three wells","Supplementary Fig. 47 source data, measurement M52 of time course",2.876
same,"Th-T fluorescence, mean of three wells","Supplementary Fig. 47 source data, measurement M53 of time course",2.889
same,"Th-T fluorescence, mean of three wells","Supplementary Fig. 47 source data, measurement M54 of time course",2.875
same,"Th-T fluorescence, mean of three wells","Supplementary Fig. 47 source data, measurement M55 of time course",2.914
same,"Th-T fluorescence, mean of three wells","Supplementary Fig. 47 source data, measurement M56 of time course",2.914
same,"Th-T assay plate reading, mean of three wells (Supplementary Fig. 47)",measurement M1,0.5144
same,"Th-T assay plate reading, mean of three wells (Supplementary Fig. 47)",measurement M2,0.4337
same,"Th-T assay plate reading, mean of three wells (Supplementary Fig. 47)",measurement M3,0.4376
same,"Th-T assay plate reading, mean of three wells (Supplementary Fig. 47)",measurement M4,0.4602
same,"Th-T assay plate reading, mean of three wells (Supplementary Fig. 47)",measurement M5,0.5047
same,"Th-T assay plate reading, mean of three wells (Supplementary Fig. 47)",measurement M6,0.5652
same,"Th-T assay plate reading, mean of three wells (Supplementary Fig. 47)",measurement M7,0.6146
same,"Th-T assay plate reading, mean of three wells (Supplementary Fig. 47)",measurement M8,0.6765
same,"Th-T assay plate reading, mean of three wells (Supplementary Fig. 47)",measurement M9,0.8275
same,"Th-T assay plate reading, mean of three wells (Supplementary Fig. 47)",measurement M10,1.067
same,"Th-T assay plate reading, mean of three wells (Supplementary Fig. 47)",measurement M11,1.395
same,"Th-T assay plate reading, mean of three wells (Supplementary Fig. 47)",measurement M12,1.75
same,"Th-T assay plate reading, mean of three wells (Supplementary Fig. 47)",measurement M13,2.113
same,"Th-T assay plate reading, mean of three wells (Supplementary Fig. 47)",measurement M14,2.291
same,"Th-T assay plate reading, mean of three wells (Supplementary Fig. 47)",measurement M15,2.38
same,"Th-T assay plate reading, mean of three wells (Supplementary Fig. 47)",measurement M16,2.421
same,"Th-T fluorescence, mean of three wells","reading M17, Supplementary Fig. 47 source data",2.473
same,"Th-T fluorescence, mean of three wells","reading M18, Supplementary Fig. 47 source data",2.4977
same,"Th-T fluorescence, mean of three wells","reading M19, Supplementary Fig. 47 source data",2.533
same,"Th-T fluorescence, mean of three wells","reading M20, Supplementary Fig. 47 source data",2.556
same,"Th-T fluorescence, mean of three wells","reading M21, Supplementary Fig. 47 source data",2.585
same,"Th-T fluorescence, mean of three wells","reading M22, Supplementary Fig. 47 source data",2.595
same,"Th-T fluorescence, mean of three wells","reading M23, Supplementary Fig. 47 source data",2.641
same,"Th-T fluorescence, mean of three wells","reading M24, Supplementary Fig. 47 source data",2.62
same,"Th-T fluorescence, mean of three wells","reading M25, Supplementary Fig. 47 source data",2.6309
same,"Th-T fluorescence, mean of three wells","reading M26, Supplementary Fig. 47 source data",2.664
same,"Th-T fluorescence, mean of three wells","reading M27, Supplementary Fig. 47 source data",2.655
same,"Th-T fluorescence, mean of three wells","reading M28, Supplementary Fig. 47 source data",2.667
same,"Th-T fluorescence, mean of three wells","reading M29, Supplementary Fig. 47 source data",2.665
same,"Th-T fluorescence, mean of three wells","reading M30, Supplementary Fig. 47 source data",2.687
same,"Th-T fluorescence, mean of three wells","reading M31, Supplementary Fig. 47 source data",2.687
same,"Th-T fluorescence, mean of three wells","reading M32, Supplementary Fig. 47 source data",2.686
same,"Th-T fluorescence, mean of three wells","reading M33, Supplementary Fig. 47 source data",2.738
same,"Th-T fluorescence, mean of three wells","reading M34, Supplementary Fig. 47 source data",2.752
same,"Th-T fluorescence, mean of three wells","reading M35, Supplementary Fig. 47 source data",2.742
same,"Th-T fluorescence, mean of three wells","reading M36, Supplementary Fig. 47 source data",2.736
same,"Th-T fluorescence, mean of three wells","time course, reading M57",2.932
same,"Th-T fluorescence, mean of three wells","time course, reading M58",2.915
same,"Th-T fluorescence, mean of three wells","time course, reading M59",2.925
same,"Th-T fluorescence, mean of three wells","time course, reading M60",2.927
same,"Th-T fluorescence, mean of three wells","time course, reading M61",2.927
same,"Th-T fluorescence, mean of three wells","time course, reading M62",2.927
same,"Th-T fluorescence, mean of three wells","time course, reading M63",2.935
same,"Th-T fluorescence, mean of three wells","time course, reading M64",2.936
same,"Th-T fluorescence, mean of three wells","time course, reading M65",2.95
same,"Th-T fluorescence, mean of three wells","time course, reading M66",2.938
same,"Th-T fluorescence, mean of three wells","time course, reading M67",2.956
same,"Th-T fluorescence, mean of three wells","time-course reading M97, Supplementary Fig. 47 source data",2.938
same,"Th-T fluorescence, mean of three wells","time-course reading M98, Supplementary Fig. 47 source data",2.952
same,"Th-T fluorescence, mean of three wells","time-course reading M99, Supplementary Fig. 47 source data",2.942
same,"Th-T fluorescence, mean of three wells","time-course reading M100, Supplementary Fig. 47 source data",2.953
same,"Th-T fluorescence, mean of three wells","time-course reading M101, Supplementary Fig. 47 source data",2.966
same,"Th-T fluorescence, mean of three wells","time-course reading M102, Supplementary Fig. 47 source data",2.943
same,"Th-T fluorescence, mean of three wells","time-course reading M103, Supplementary Fig. 47 source data",2.949
same,"Th-T fluorescence, mean of three wells","time-course reading M104, Supplementary Fig. 47 source data",2.951
same,"Th-T fluorescence, mean of three wells","time-course reading M105, Supplementary Fig. 47 source data",2.946
same,"Th-T fluorescence, mean of three wells","time-course reading M106, Supplementary Fig. 47 source data",2.949
same,"Th-T fluorescence, mean of three wells","time-course reading M107, Supplementary Fig. 47 source data",2.931
same,"Th-T fluorescence, mean of three wells","time-course reading M108, Supplementary Fig. 47 source data",2.953
same,"Th-T fluorescence, mean of three wells","time-course reading M109, Supplementary Fig. 47 source data",2.942
same,"Th-T fluorescence, mean of three wells","time-course reading M110, Supplementary Fig. 47 source data",2.939
same,"Th-T fluorescence, mean of three wells","time-course reading M111, Supplementary Fig. 47 source data",2.961
same,"Th-T fluorescence, mean of three wells","time-course reading M112, Supplementary Fig. 47 source data",2.955
same,"Th-T fluorescence, mean of three wells","time-course reading M113, Supplementary Fig. 47 source data",2.9565
same,"Th-T fluorescence, mean of three wells","time-course reading M114, Supplementary Fig. 47 source data",2.9516
same,"Th-T fluorescence, mean of three wells","time-course reading M115, Supplementary Fig. 47 source data",2.943
same,"Th-T fluorescence, mean of three wells","time-course reading M116, Supplementary Fig. 47 source data",2.94
